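Cultured in 96-well plates, cells were exposed to test compound for 48 hours across five concentrations. Here, GI50 denotes the concentration required for 50% inhibition of growth.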 Activity calls are given as the source filed them. Rule as the data show it: active = GI50 up to about 1.1 µM and inactive = higher.
Experiments:
Assay in all cases: NCI tumour cell line growth inhibition, 48 h
K562 = tested on: K562
SF-295 = tested on: SF-295
TK-10 = tested on: TK-10
HCT-15 = tested on: HCT-15
T47D = tested on: T47D
RXF 393 = tested on: RXF 393
NCI/ADR-RES = tested on: NCI/ADR-RES
786-0 = tested on: 786-0
SNB-19 = tested on: SNB-19
COLO 205 = tested on: COLO 205
UACC-257 = tested on: UACC-257
Hs-578T = tested on: Hs-578T
MCF7 = tested on: MCF7
CCRF-CEM = tested on: CCRF-CEM
M14 = tested on: M14
DU-145 = tested on: DU-145
NCI-H23 = tested on: NCI-H23
OVCAR-3 = tested on: OVCAR-3
HCT-116 = tested on: HCT-116
HL-60 = tested on: HL-60

Measured: GI50

O=C1/C(=C\c2cccc(Oc3ccccc3)c2)S(=O)(=O)C(c2ccccc2)N1c1cccc(Cl)c1 (stereo not drawn)
40.6 µM: HCT-15
inactive: K562 26.4 µM | SF-295 39.4 µM | TK-10 > 100 µM | T47D 46.8 µM | RXF 393 36.3 µM | NCI/ADR-RES 35.4 µM | 786-0 46.5 µM | SNB-19 68.9 µM | COLO 205 69.8 µM | UACC-257 74.6 µM | Hs-578T 65.5 µM | MCF7 30.2 µM | CCRF-CEM 11.1 µM | M14 40.8 µM | DU-145 65.5 µM | NCI-H23 51.4 µM | OVCAR-3 36.2 µM | HCT-116 29.4 µM

COc1nc2c(c(=O)n1C)N[C@H]1[C@H](OC(C)=O)[C@@H](OC(C)=O)CO[C@H]1N2
> 100 µM: HCT-15
inactive: K562 > 100 µM | SF-295 > 100 µM | TK-10 > 100 µM | T47D > 100 µM | RXF 393 > 100 µM | NCI/ADR-RES > 100 µM | 786-0 > 100 µM | SNB-19 > 100 µM | COLO 205 > 100 µM | UACC-257 > 100 µM | HL-60 > 100 µM | Hs-578T > 100 µM | MCF7 > 100 µM | CCRF-CEM > 10 µM | M14 > 100 µM | DU-145 > 100 µM | OVCAR-3 > 100 µM | HCT-116 > 100 µM

CC(C)(CC(O)C#N)/[N+]([O-])=[N+](\[O-])C(C)(C)CC(O)C#N (stereo not drawn)
15.2 µM: HCT-15
inactive: K562 14.4 µM | SF-295 35.7 µM | TK-10 26.7 µM | T47D 27.5 µM | RXF 393 15.9 µM | NCI/ADR-RES 38.2 µM | 786-0 18.2 µM | SNB-19 84.3 µM | COLO 205 14.8 µM | UACC-257 20.4 µM | Hs-578T 12.2 µM | MCF7 20.7 µM | M14 16 µM | DU-145 30.5 µM | NCI-H23 25.4 µM | OVCAR-3 22.5 µM | HCT-116 15.2 µM

CC(C)Nc1[nH]c(C(=O)c2ccccc2)c(N)c1C(=S)Nc1ccccc1
32.8 µM: HCT-15
inactive: K562 60.8 µM | SF-295 > 100 µM | TK-10 57.1 µM | T47D 69.8 µM | NCI/ADR-RES > 100 µM | 786-0 36.5 µM | SNB-19 > 100 µM | COLO 205 28.1 µM | UACC-257 22.9 µM | HL-60 > 100 µM | Hs-578T 86.1 µM | MCF7 40.4 µM | CCRF-CEM > 100 µM | M14 23.2 µM | DU-145 > 100 µM | NCI-H23 > 100 µM | OVCAR-3 > 100 µM | HCT-116 36.1 µM

O=C1CCCc2cc3c(cc21)CCC3C(=O)O (stereo not drawn)
> 100 µM: HCT-15
inactive: K562 > 100 µM | SF-295 > 100 µM | TK-10 > 100 µM | T47D > 100 µM | RXF 393 > 100 µM | NCI/ADR-RES > 100 µM | 786-0 > 100 µM | SNB-19 > 100 µM | COLO 205 > 100 µM | UACC-257 > 100 µM | HL-60 > 100 µM | Hs-578T > 100 µM | MCF7 > 100 µM | CCRF-CEM > 100 µM | M14 > 100 µM | DU-145 > 100 µM | NCI-H23 > 100 µM | HCT-116 > 100 µM

c1csc(-c2cc(-c3ccsc3)cs2)c1
inactive: K562 > 100 µM | SF-295 32.1 µM | TK-10 > 100 µM | T47D > 100 µM | RXF 393 20.6 µM | NCI/ADR-RES > 100 µM | 786-0 44.2 µM | COLO 205 > 100 µM | UACC-257 > 100 µM | HL-60 74.1 µM | Hs-578T 21 µM | MCF7 34.8 µM | CCRF-CEM > 100 µM | M14 > 100 µM | DU-145 > 100 µM | NCI-H23 14.9 µM | OVCAR-3 27.2 µM | HCT-116 > 100 µM
> 100 µM: HCT-15

CCN(CC)c1ccc(/C=c2\nc(-c3ccccc3)n3c2nc2ccccc23)cc1
inactive: K562 3.77 µM | SF-295 4.58 µM | TK-10 17 µM | RXF 393 16.8 µM | NCI/ADR-RES 3.98 µM | 786-0 4.27 µM | SNB-19 83.8 µM | COLO 205 5.14 µM | UACC-257 21.9 µM | Hs-578T 24.4 µM | MCF7 14.6 µM | M14 7.46 µM | DU-145 26.8 µM | NCI-H23 20 µM | OVCAR-3 9.62 µM | HCT-116 3.64 µM
active: T47D 0.0256 µM | CCRF-CEM 0.544 µM
1.23 µM: HCT-15

Cc1ccc(NC(=O)/C(Cc2cc(=O)oc3cc(O)ccc23)=N\NC(C)(C)C)cc1C
inactive: K562 > 100 µM | SF-295 > 100 µM | T47D > 100 µM | RXF 393 > 100 µM | NCI/ADR-RES > 100 µM | 786-0 > 100 µM | SNB-19 > 100 µM | COLO 205 > 100 µM | UACC-257 > 100 µM | HL-60 > 100 µM | Hs-578T > 100 µM | MCF7 > 100 µM | CCRF-CEM > 100 µM | M14 > 100 µM | DU-145 > 100 µM | NCI-H23 > 100 µM | OVCAR-3 > 100 µM | HCT-116 > 100 µM
> 100 µM: HCT-15

CN(C)CCCN1c2ccccc2CCc2cc([N+](=O)[O-])ccc21
inactive: K562 27.2 µM | SF-295 18.9 µM | TK-10 28.5 µM | T47D 18.7 µM | RXF 393 14.2 µM | NCI/ADR-RES 26.9 µM | 786-0 24.5 µM | SNB-19 28.6 µM | COLO 205 21 µM | UACC-257 20.1 µM | Hs-578T 31.8 µM | MCF7 27.3 µM | M14 18.9 µM | DU-145 24.4 µM | NCI-H23 26.5 µM | OVCAR-3 20 µM | HCT-116 20.5 µM
34.4 µM: HCT-15

CC[C@H]1C=CCC[C@@]2(C[C@@H]3CC[C@@H]4[C@H](C(=O)OCCCCCCCCCCCCCCCC(=O)N(CCCN)C[C@@H](O)CCN)[C@]5(CCC[C@@H](C)O5)NC(=[N+]34)N2)O1
active: K562 0.236 µM | SF-295 0.518 µM | T47D 0.824 µM | RXF 393 0.439 µM | NCI/ADR-RES 0.733 µM | 786-0 0.143 µM | SNB-19 0.0822 µM | COLO 205 0.316 µM | UACC-257 0.122 µM | HL-60 0.318 µM | MCF7 0.46 µM | M14 0.0249 µM | DU-145 0.731 µM | NCI-H23 0.92 µM | OVCAR-3 0.887 µM | HCT-116 0.286 µM
inactive: TK-10 1.44 µM | Hs-578T 1.21 µM
0.41 µM: HCT-15

CCCC(=O)OCC1OC(n2cc(F)c(=O)[nH]c2=O)CC1OC(=O)CCC (stereo not drawn)
active: SF-295 0.127 µM | 786-0 0.434 µM | HL-60 0.247 µM | MCF7 0.0169 µM | CCRF-CEM 0.0295 µM | M14 0.312 µM | DU-145 0.156 µM | NCI-H23 0.278 µM | HCT-116 0.524 µM
> 4.41 µM: HCT-15
inactive: K562 1.16 µM | TK-10 2.25 µM | T47D > 6.15 µM | RXF 393 > 9.2 µM | NCI/ADR-RES 1.55 µM | COLO 205 > 6.5 µM | UACC-257 3.79 µM | Hs-578T 2.32 µM | OVCAR-3 1.67 µM

Cc1ccsc1C(=S)Nc1ccc(Cl)c(C(=O)OC(C(C)C)C(C)C)c1
23.6 µM: HCT-15
inactive: K562 3.97 µM | SF-295 21.9 µM | TK-10 38.1 µM | T47D 6.9 µM | NCI/ADR-RES 13.6 µM | 786-0 19.8 µM | SNB-19 25.5 µM | COLO 205 12.9 µM | UACC-257 28.4 µM | HL-60 11.4 µM | Hs-578T 39.4 µM | MCF7 16.1 µM | CCRF-CEM 5.62 µM | M14 17.9 µM | DU-145 33 µM | NCI-H23 13.5 µM | OVCAR-3 14 µM | HCT-116 12.1 µM

CSc1nc(=O)c2nc(-c3cccs3)c(-c3cccs3)nc2n1C
inactive: K562 > 100 µM | SF-295 32.7 µM | TK-10 > 100 µM | T47D 18.7 µM | RXF 393 18.7 µM | NCI/ADR-RES 50.2 µM | 786-0 30.2 µM | SNB-19 29.8 µM | COLO 205 > 100 µM | UACC-257 > 100 µM | HL-60 96.6 µM | Hs-578T 35.6 µM | MCF7 24 µM | CCRF-CEM > 100 µM | M14 > 100 µM | DU-145 34.3 µM | NCI-H23 55.8 µM | HCT-116 > 100 µM
> 100 µM: HCT-15

COc1ccc(CCNC(=S)NC=C2C(=O)c3ccccc3C2=O)cc1OC
inactive: K562 > 100 µM | SF-295 > 100 µM | T47D > 100 µM | RXF 393 > 100 µM | NCI/ADR-RES > 100 µM | 786-0 > 100 µM | SNB-19 > 100 µM | COLO 205 > 100 µM | UACC-257 > 100 µM | HL-60 93.1 µM | Hs-578T 14.8 µM | MCF7 89.9 µM | CCRF-CEM > 100 µM | M14 > 100 µM | DU-145 > 100 µM | NCI-H23 > 100 µM | HCT-116 > 100 µM
active: OVCAR-3 0.0982 µM
> 100 µM: HCT-15

CC(=O)NC1C(OCC(=O)NC(C)C(=O)NC(CCC(=O)NCCCCCNc2ccc([N+](=O)[O-])c3[nH]c4ccccc4c(=O)c23)C(N)=O)C(O)C(CO)OC1(C)OCc1ccccc1 (stereo not drawn)
inactive: K562 4.5 µM | SF-295 45.4 µM | TK-10 24 µM | T47D > 50 µM | RXF 393 3.48 µM | NCI/ADR-RES > 50 µM | 786-0 13 µM | SNB-19 33.3 µM | COLO 205 > 50 µM | UACC-257 > 50 µM | Hs-578T 19.5 µM | MCF7 > 50 µM | CCRF-CEM 3.75 µM | M14 > 50 µM | DU-145 > 50 µM | NCI-H23 > 50 µM | OVCAR-3 > 50 µM | HCT-116 19.4 µM
> 50 µM: HCT-15

Source: ChEMBL document CHEMBL1201862, “PubChem BioAssay data set” (2004)
